Measurements taken from patent US20260125371A1, “METHOD FOR INHIBITING CLOSTRIDIOIDES DIFFICILE SPORE GERMINATION” (UNIVERSITY OF NOTRE DAME DU LAC, priority 2022, published 2026).
In brackets after ≈: the same amount, converted by molar mass. Read-outs that look alike come from different tables or passages of the source.

How the values were obtained:
C. difficile strains = test: MIC (microdilution) against panel of 101 C. difficile strains; assay type: cell-based, Clostridioides difficile; settings: Clostridioides difficile
S. pyogenes ATCC 49399 = test: MIC against S. pyogenes; assay type: cell-based; settings: Streptococcus pyogenes, ATCC49399
E. faecalis = test: MIC against E. faecalis strains; assay type: cell-based; settings: Enterococcus faecalis, E. faecalis 99 (Van R); read-out: MIC
[1] = system: Bacteroides fragilis HM-709; test: MIC against Bacteroides fragilis (gut bacteria); assay type: cell-based; settings: HM709
[2] = system: Corynebacterium spp. HM-784; test: MIC against Corynebacterium spp. (gut bacteria); assay type: cell-based; settings: SPP.HM784
C. difficile ATCC 43255 = assay type: cell-based, Clostridioides difficile
HepG2 cells = test: XTT cytotoxicity assay; assay type: cell-based; settings: Homo sapiens, HepG2, read-out: XTT IC50
[3] = system: C. difficile strain ATCC43255 spores; test: Spore germination inhibition assay; assay type: cell-based, Clostridioides difficile; settings: Clostridioides difficile, 1 h, compound 45 μM, germinant 6 mM taurocholate and 12 mM glycine, OD600 over 60 min, duplicate

SMILES: O=[N+]([O-])c1cnc(-c2nc(-c3ccc(OC4CCCC4)cc3)no2)[nH]1 [Compound 57, 3-(4-(Cyclopentyloxy)phenyl)-5-(4-nitro-1H-imidazol-2-yl)-1,2,4-oxadiazole]
- MIC (C. difficile strains; strain NR-49283): 0.5 µg/mL (≈ 1.46 µM)
- MIC (C. difficile strains; strain NR-49284): 0.5 µg/mL (≈ 1.46 µM)
- MIC (C. difficile strains; strain NR-49285): 0.5 µg/mL (≈ 1.46 µM)
- MIC (C. difficile strains; strain NR-49286): 0.5 µg/mL (≈ 1.46 µM)
- MIC (C. difficile strains; strain NR-49287): 0.25 µg/mL (≈ 0.732 µM)
- MIC (C. difficile strains; strain NR-49288): 1 µg/mL (≈ 2.93 µM)
- MIC (C. difficile strains; strain NR-49289): 1 µg/mL (≈ 2.93 µM)
- MIC (C. difficile strains; strain NR-49290): 1 µg/mL (≈ 2.93 µM)
- MIC (C. difficile strains; strain NR-49291): 1 µg/mL (≈ 2.93 µM)
- MIC (C. difficile strains; strain NR-49293): 0.5 µg/mL (≈ 1.46 µM)
- MIC (C. difficile strains; strain NR-49295): 1 µg/mL (≈ 2.93 µM)
- MIC (C. difficile strains; strain NR-49296): 1 µg/mL (≈ 2.93 µM)
- MIC (C. difficile strains; strain NR-49297): 1 µg/mL (≈ 2.93 µM)
- MIC (C. difficile strains; strain NR-49298): 1 µg/mL (≈ 2.93 µM)
- MIC (C. difficile strains; strain NR-49299): 1 µg/mL (≈ 2.93 µM)
- MIC (C. difficile strains; strain NR-49300): 1 µg/mL (≈ 2.93 µM)
- MIC (C. difficile strains; strain NR-49301): 0.5 µg/mL (≈ 1.46 µM)
- MIC (C. difficile strains; strain NR-49303): 1 µg/mL (≈ 2.93 µM)
- MIC (C. difficile strains; strain NR-49304): 1 µg/mL (≈ 2.93 µM)
- MIC (C. difficile strains; strain NR-49306): 0.5 µg/mL (≈ 1.46 µM)
- MIC (C. difficile strains; strain NR-49307): 0.5 µg/mL (≈ 1.46 µM)
- MIC (C. difficile strains; strain NR-49308): 0.5 µg/mL (≈ 1.46 µM)
- MIC (C. difficile strains; strain NR-49309): 0.5 µg/mL (≈ 1.46 µM)
- MIC (C. difficile strains; strain NR-49311): 1 µg/mL (≈ 2.93 µM)
- MIC (C. difficile strains; strain NR-49312): 0.5 µg/mL (≈ 1.46 µM)
- MIC (C. difficile strains; strain NR-49313): 0.5 µg/mL (≈ 1.46 µM)
- MIC (C. difficile strains; strain NR-49314): 0.5 µg/mL (≈ 1.46 µM)
- MIC (C. difficile strains; strain NR-49315): 0.5 µg/mL (≈ 1.46 µM)
- MIC (C. difficile strains; strain NR-49316): 1 µg/mL (≈ 2.93 µM)
- MIC (C. difficile strains; strain NR-49317): 1 µg/mL (≈ 2.93 µM)
- MIC (C. difficile strains; strain NR-49319): 0.25 µg/mL (≈ 0.732 µM)
- MIC (C. difficile strains; strain NR-49320): 0.5 µg/mL (≈ 1.46 µM)
- MIC (C. difficile strains; strain NR-49321): 1 µg/mL (≈ 2.93 µM)
- MIC (C. difficile strains; strain NR-49323): 0.5 µg/mL (≈ 1.46 µM)
- MIC (C. difficile strains; strain NR-49324): 1 µg/mL (≈ 2.93 µM)
- MIC (C. difficile strains; strain NR-49325): 0.25 µg/mL (≈ 0.732 µM)
- MIC (C. difficile strains; strain NR-49326): 0.5 µg/mL (≈ 1.46 µM)
- MIC (C. difficile strains; strain NR-49327): 0.25 µg/mL (≈ 0.732 µM)
- MIC (C. difficile strains; strain NR-49328): 2 µg/mL (≈ 5.86 µM)
- MIC (C. difficile strains; strain NR-49329): 0.5 µg/mL (≈ 1.46 µM)
- MIC (C. difficile strains; strain RMA23691): 1 µg/mL (≈ 2.93 µM)
- MIC (C. difficile strains; strain RMA23828): 1 µg/mL (≈ 2.93 µM)
- MIC (C. difficile strains; strain RMA24531): 0.125 µg/mL (≈ 0.366 µM)
- MIC (C. difficile strains; strain RMA24923): 0.125 µg/mL (≈ 0.366 µM)
- MIC (C. difficile strains; strain RMA26675): 2 µg/mL (≈ 5.86 µM)
- MIC (C. difficile strains; strain RMA27081): 1 µg/mL (≈ 2.93 µM)
- MIC (C. difficile strains; strain RMA27173): 2 µg/mL (≈ 5.86 µM)
- MIC50 (C. difficile strains; 101 C. difficile strains, read-out: MIC50): 0.5 µg/mL (≈ 1.46 µM)
- MIC90 (C. difficile strains; 101 C. difficile strains, read-out: MIC90): 1 µg/mL (≈ 2.93 µM)
- MIC90 (C. difficile strains; 101 C. difficile strains, read-out: MIC90 (101 strains)): 1 µg/mL (≈ 2.93 µM)
- MIC (S. pyogenes ATCC 49399): > 128 µg/mL
- MIC (E. faecalis): 128 µg/mL (≈ 375 µM)
- MIC [1]: 128 µg/mL (≈ 375 µM)
- MIC [2]: > 128 µg/mL
- passages after which MIC increased 2-fold (C. difficile ATCC 43255; 2-fold MIC increase): 8 passages
- passages after which MIC increased 4-fold (C. difficile ATCC 43255; 4-fold MIC increase): 14 passages
- passages after which MIC increased 8-fold (C. difficile ATCC 43255; 8-fold MIC increase): 20 passages
- increase in MIC on serial passage (C. difficile ATCC 43255; whole serial passage experiment (30 passages)): 8 fold
- IC50 (HepG2 cells): 53.4 ± 4.5 µg/mL (≈ 156 µM)
- inhibition at 45 µM [3]: < 10%
